# US9376395B2 (priority 2011, dated 2016)
# Tests used:
# Human NSCLC A549 cells = conditions: 60 mg/kg i.v. day 1, 4, 8, 11, 18, 25; 10% HPβCD formulation; balb/c nu/nu mice
# NCI-60 cell lines = assay: NCI-60 cell line panel screening; assay type: cell-based, human; conditions: vs Bendamustine
smiles,measurement,setting,value
"Cn1c(CCCC(=O)O)nc2cc(N(CCCl)CCCl)ccc21 [Bendamustine, reference compound]",Body weight,Human NSCLC A549 cells,28.6 g
same,T/C (%),Human NSCLC A549 cells,71.9%
same,Tumor volume (mm3),Human NSCLC A549 cells,1716.5 mm3
same,Tumor weight,Human NSCLC A549 cells,1.97 g
Cn1c(CCCCCCC(=O)NO)nc2cc(N(CCCl)CCCl)ccc21 [NL-101],fold more potent than Bendamustine in the NCI-60 cell lines,NCI-60 cell lines,25-100 fold
same,Body weight,Human NSCLC A549 cells,27.6 g
same,T/C (%),Human NSCLC A549 cells,37.7%
same,Tumor volume (mm3),Human NSCLC A549 cells,772.7 mm3
same,Tumor weight,Human NSCLC A549 cells,0.88 g
